Read-outs that look alike come from different tables or passages of the source. Marks after values point to notes of the source that are not given here. Residues, ends and D or L forms follow the SMILES beside them. *: point of attachment. Cbz = O=C(OCc1ccccc1)*; CH2F = FC*
Tests used:
[1] = test system: HepG2 cells; test: Annexin V/PI staining assay (flow cytometry)
Protocol: For apoptosis detection, we used the FITC Annexin V Apoptosis Detection Kit I (BD Biosciences), and the analysis was performed according to the manufacturer’s instructions. Briefly, cells were washed twice with saline and then resuspended in 100 μL of binding buffer with 5 μL of PI and 5 μL of FITC Annexin V. The cells were gently mixed by vortexing and incubated for 15 min at room temperature in the dark. Afterwards, 400 μL of binding buffer was added to each tube, and the cell fluorescence was determined by flow cytometry, as described above. The percent of viable, early apoptotic, late apoptotic and necrotic cells were determined. […] The cells were then trypsinized, and the FITC Annexin V Apoptosis Detection assay was conducted as described above.

[2] = test system: panel of 15 cancer cell lines and 3 non-cancer cells; test: Alamar blue cytotoxicity assay, whole panel; assay type: cell-based; conditions: any cells of the panel, 72 h
Protocol: A panel of 15 cancer cell lines, 3 non-cancer cells and 1 mutant and its parental cell line were selected for this study, as detailed in Table S5. The cells were cultured in RPMI 1640 medium (Gibco-BRL, Gaithersburg, MD, USA) with 10% fetal bovine serum (Life, Carlsbad, CA, USA), 2 mM L-glutamine (Vetec Química Fina, Duque de Caxias, RJ, Brazil) and 50 μg/mL gentamycin (Life, Carlsbad, CA, USA). Adherent cells were collected by treatment with 0.25% trypsin EDTA solution (Gibco-BRL). All cell lines were cultured in flasks at 37 °C in 5% CO2 and subcultured every 3–4 days to maintain exponential growth. All cell lines were tested for mycoplasma using a mycoplasma stain kit (Sigma-Aldrich) to validate the use of cells free from contamination. […]
Cell viability was quantified colorimetrically using the alamar blue assay according to Ahmed et al.[34]. […] Absorbance was measured at 570 nm and 600 nm using the SpectraMax 190 Microplate Reader (Molecular Devices, Sunnyvale, CA, USA), and the drug effect was quantified as a percent of the absorbance of the control-treated cells.

[3] = test system: HepG2 cells; test: DNA synthesis quantification (methyl-[3H]-thymidine incorporation); assay type: cell-based, human; conditions: HepG2, 12 μM
Protocol: Cellular DNA synthesis was quantified by the incorporation of methyl-[^3H]-thymidine. Methyl-[^3H]-thymidine is a radiolabeled DNA precursor that is incorporated into newly synthesized DNA. Briefly, the complex was added along with 1 µCi of methyl-[^3H]-thymidine (PerkinElmer; Shelton, CT, USA) and incubated for 3 h. After this incubation period, cultures were harvested using a cell harvester (Brandel, Inc., Gaithersburg, MD, USA), and the amount of incorporated^3H-thymidine was determined using a liquid scintillation cocktail Hidex Maxilight (PerkinElmer Life Sciences; Groningen, GE, Netherlands) and a plate CHAMELEON V multilabel Counter (Mustionkatu 2, Turku, Finland). Mitoxantrone (Sigma-Aldrich) was used as the positive control.

[4] = test system: HCT116; assay type: cell-based, human; conditions: HCT116 (human colon carcinoma), 72 h
[5] = test system: HepG2; assay type: cell-based, human; conditions: HepG2 (human hepatocellular carcinoma), monolayer, 72 h
[6] = test system: MRC-5; assay type: cell-based; conditions: MRC-5 (human lung fibroblast, non-cancer), 72 h
[7] = test system: multicellular spheroids formed from HepG2 cells; test: 3D multicellular spheroid culture, alamar blue; assay type: cell-based, human; conditions: HepG2 3D spheroids, 72 h
Protocol: HepG2 cells were cultivated in 3D multicellular spheroids. Briefly, 100 μL of cell solution (0.5 × 10^6 cells/mL) was added to a 96-well plate with a cell-repellent surface (Greiner Bio-One, Kremsmünster, Austria) and cultured in complete medium plus 3% Matrigel (BD Biosciences, San Jose, CA, USA). Spheroids with stable structures formed after three days. Then, the spheroids were exposed to a range of drug concentrations for 72 h. The negative control received the vehicle that was used for diluting the complex tested. In the end of the experiment, morphological changes were examined by light microscopy (Olympus BX41, Tokyo, Japan) using Image-Pro software (Media Cybernetics, Inc. Silver Spring, USA), and cell viability was quantified by alamar blue assay as described above.

[8] = test system: K-562; assay type: cell-based, human; conditions: K-562 (human chronic myelogenous leukemia), 72 h
[9] = test system: HepG2 cells; assay type: cell-based, human; conditions: DOX 2 µM, OXA 10 µM, RCX 12 µM
Protocol: Briefly, the cells were harvested in a permeabilization solution containing 0.1% Triton X-100, 2 µg/mL PI, 0.1% sodium citrate and 100 µg/mL RNAse (all from Sigma-Aldrich) and incubated in the dark for 15 min at room temperature. Finally, cell fluorescence was measured by flow cytometry with a BD LSRFortessa cytometer using BD FACSDiva Software (BD Biosciences) and FlowJo Software 10 (FlowJo Lcc; Ashland, OR, USA). Ten thousand events were evaluated per experiment, and cellular debris was omitted from the analysis.

[10] = test system: HepG2 cells; test: Trypan blue exclusion assay; assay type: cell-based, human
[11] = test system: HL-60; assay type: cell-based, human; conditions: HL-60 (human promyelocytic leukemia), 72 h
[12] = test system: B16-F10; assay type: cell-based, mouse; conditions: B16-F10 (murine melanoma), 72 h
[13] = test system: HSC-3; assay type: cell-based, human; conditions: HSC-3 (human oral squamous cell carcinoma), 72 h
[14] = test system: SCC-4; assay type: cell-based, human; conditions: SCC-4 (human oral squamous cell carcinoma), 72 h
[15] = test system: PBMC; assay type: cell-based; conditions: PBMC (human peripheral blood mononuclear cells, non-cancer), 72 h
[16] = test system: HepG2 cell xenografts; test: Human hepatocellular carcinoma xenograft model; assay type: in vivo, C.B-17 SCID mice; conditions: 0.3 mg/kg doxorubicin, 10 mg/kg 5-fluorouracil, i.p. once a day for 21 days
Protocol: Animals were housed in cages with free access to food and water. All animals were kept under a 12:12 h light-dark cycle (lights on at 6:00 a.m.). The local Animal Ethics Committee approved the experimental protocol (number 06/2015).
(§1) HepG2 cells (1 × 10^7 cells per 500 µL) were implanted subcutaneously into the left front armpit of the mice. […] The treatments were initiated one day after the tumor cell injection. The animals were treated intraperitoneally (200 µL per animal) once daily for 21 consecutive days. On the 22nd day, the animals were anesthetized, and peripheral blood samples were collected from the brachial artery. Animals were euthanized by anesthetic overdose, and tumors were excised and weighed.

[17] = DOX 0.3 mg/kg, 5-FU 10 mg/kg
Protocol: as §1
To assess the toxicological effects, mice were weighed at the beginning and at the end of the experiment. […] Hematological analysis was performed using light microscopy. Livers, kidneys, lungs and hearts were removed, weighed and examined for any signs of gross lesions, color changes and/or hemorrhages. After gross macroscopic examination, the tumors, livers, kidneys, lungs and hearts were fixed in 4% formalin buffer and embedded in paraffin. Tissue sections were stained with hematoxylin and eosin chromogens, and a pathologist performed the analysis under a light microscope.

[18] = test system: WT SV40 MEF; assay type: cell-based, mouse; conditions: Mus musculus, 72 h
[19] = test system: BAD KO SV40 MEF; assay type: cell-based, mouse; conditions: Mus musculus, 72 h
[20] = HepG2, 2 h pretreatment (50 µM Z-VAD(Ome)-FMK, 20 µM Z-IETD-FMK, 20 µM Z-LEHD-FMK, 5 µM U-0126, 5 µM SP 600125, 5 µM PD 169316, 10 µM cyclic pifithrin-α), then 12 µM RCX 48 h
[21] = peripheral blood, i.p. 21 days, RCX 2.5 mg/kg
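Wherever Final body weight is given: mice bearing subcutaneous HepG2 xenografts, given intraperitoneal doses once daily for 21 days, weighed at start and end, blood leukocytes counted by light microscopy on day 22.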
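Wherever Heart relative weight is given: mice bearing subcutaneous HepG2 xenografts, given intraperitoneal doses once daily for 21 days, weighed at start and end, blood leukocytes counted by light microscopy on day 22.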
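Wherever Initial body weight is given: mice bearing subcutaneous HepG2 xenografts, given intraperitoneal doses once daily for 21 days, weighed at start and end, blood leukocytes counted by light microscopy on day 22.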
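Wherever Kidney relative weight is given: mice bearing subcutaneous HepG2 xenografts, given intraperitoneal doses once daily for 21 days, weighed at start and end, blood leukocytes counted by light microscopy on day 22.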

SMILES: N#CC(=C(/N)Sc1ccccc1N)/C(C#N)=C(/N)Sc1ccccc1N [U-0126]
- effect of inhibitor pretreatment on RCX-induced apoptosis [1]: prevented RCX-induced apoptosis

SMILES: COc1cc(O)c(C(C)=O)c(OC)c1 [xanthoxylin, 2-hydroxy-4,6-dimethoxyacetophenone]
- IC50 [2]: > 127 µM

SMILES: COC(=O)CC[C@H](NC(=O)[C@H](CC(C)C)NC(=O)OCc1ccccc1)C(=O)N[C@@H](Cc1cnc[nH]1)C(=O)N[C@@H](CC(=O)OC)C(=O)CF [Z-LEHD-FMK] (Cbz-LE(OMe)HD(OMe)-CH2F)
- effect of inhibitor pretreatment on RCX-induced apoptosis [1, 20]: prevented the RCX-induced apoptosis

SMILES: Oc1c2ccccc2c2c3c(cccc13)N=N2 [SP 600125]
- effect of inhibitor pretreatment on RCX-induced apoptosis [1, 20]: did not prevent RCX-induced apoptosis

SMILES: O=C1c2c(O)ccc(O)c2C(=O)c2c(NCCNCCO)ccc(NCCNCCO)c21 [Mitoxantrone]
- reduction of DNA synthesis [3]: 55.2%

SMILES: COC(=O)C[C@H](NC(=O)[C@H](C)NC(=O)[C@@H](NC(=O)OCc1ccccc1)C(C)C)C(=O)CF [Z-VAD(OMe)-FMK] (Cbz-Val-Ala-Asp(OMe)-CH2F)
- effect of inhibitor pretreatment on RCX-induced apoptosis [1]: prevented the RCX-induced apoptosis

SMILES: O=C1[O][Pt]2([NH][C@@H]3CCCC[C@H]3[NH]2)[O]C1=O [OXA, oxaliplatin]
- IC50 [4]: 4.1 µM
- IC50 [5]: 2200 nM
- IC50 [6]: 9.5 µM
- IC50 [7]: 6.6 µM
- IC50 [8]: 1000 nM
- DNA content S ([9]; HepG2, 12 h): 12.9 ± 4.4%
- DNA content S ([9]; HepG2, 24 h): 18.5 ± 1.4%
- DNA content S ([9]; HepG2, 48 h): 21.2 ± 1.7 %
- DNA content S ([9]; HepG2, 72 h): 16.2 ± 1.1%
- change in the number of viable cells ([10]; HepG2, 24 h, DOX 2 µM, OXA 10 µM): reduced the number of viable cells
- IC50 [11]: 600 nM
- IC50 [12]: 2200 nM
- IC50 [13]: 3.3 µM
- IC50 [14]: 7.7 µM
- IC50 [15]: 9.4 µM

SMILES: Cc1ccc(-c2cn3c4c(sc3n2)CCCC4)cc1 [cyclic pifithrin-α]
- effect of inhibitor pretreatment on RCX-induced apoptosis [1]: did not prevent the RCX-induced apoptosis

SMILES: CC(=O)N[C@@H](CS)C(=O)O [N-acetyl-L-cysteine]
- protection against RCX-induced reduction in viable cells ([10]; HepG2, 1 h pretreatment with 5 mM NAC, then 12 µM RCX for 24 h): did not prevent the reduction in the number of viable cells

SMILES: O=c1[nH]cc(F)c(=O)[nH]1 [5-FU, 5-fluorouracil]
- reduction of tumor weight [16]: 40.3%
- Initial body weight ([17]; before treatment, RCX 2.5 mg/kg groups): 25.2 ± 0.4 g
- Final body weight ([17]; i.p. 21 days, RCX 2.5 mg/kg): 24.1 ± 1.7 g
- Heart relative weight ([17]; i.p. 21 days, RCX 2.5 mg/kg): 0.5 ± 0.2 g/100 g body weight
- Kidney relative weight ([17]; i.p. 21 days, RCX 2.5 mg/kg): 1.2 ± 0.4 g/100 g body weight
- Liver relative weight ([17]; i.p. 21 days, RCX 2.5 mg/kg): 3.4 ± 0.7 g/100 g body weight
- Lung relative weight ([17]; i.p. 21 days, RCX 2.5 mg/kg): 0.6 ± 0.2 g/100 g body weight
- Survival ([17]; i.p. 21 days, RCX 2.5 mg/kg): 9/15
- Differential leukocytes: Eosinophils [17, 21]: 1.0%
- Differential leukocytes: Lymphocytes [17, 21]: 32.8%
- Differential leukocytes: Monocytes [17, 21]: 1.3%
- Differential leukocytes: Neutrophils [17, 21]: 65.0%
- Erythrocytes [17, 21]: 8.4 ± 0.5 10^6cells/μL
- Total leukocytes [17, 21]: 1.8 ± 0.3* 10^3cells/μL
- IC50 [18]: 1700 nM
- IC50 [19]: 7.3 µM

SMILES: CC[C@H](C)[C@H](NC(=O)OCc1ccccc1)C(=O)N[C@@H](CCC(=O)OC)C(=O)N[C@H](C(=O)N[C@@H](CC(=O)OC)C(=O)CF)[C@@H](C)O [Z-IETD-FMK] (Cbz-IE(OMe)TD(OMe)-CH2F)
- effect of inhibitor pretreatment on RCX-induced apoptosis [1]: prevented the RCX-induced apoptosis
